Experimental data taken from PubChem BioAssay AID330 (DTP/NCI, 2004).
“And” between values parts separate entries of the source, which are not always exact repeats. Equal values may be shown once. Toxic doses and inconclusive results are not listed.

Test system: P388 leukemia ip, CD2F1 mice, survival T/C
Assay: NCI In Vivo Anticancer Drug Screen. Data for tumor model P388 Leukemia (intraperitoneal) in CD2F1 (CDF1) mice
Conditions: endpoint: median survival time, higher = longer survival
In short: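 Mice carrying the transplanted tumor received test compound or vehicle. Survival was recorded in each group, and the value is the treated-group measurement divided by that of the vehicle-treated control group.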

[1] = dose: 12.5 mg/kg/injection, schedule: Q01DX009 (ip), vehicle: saline with Tween-80
[2] = dose: 25.0 mg/kg/injection, schedule: Q01DX009 (ip), vehicle: saline with Tween-80
[3] = dose: 50.0 mg/kg/injection, schedule: Q01DX009 (ip), vehicle: saline with Tween-80
[4] = dose: 50.0 mg/kg/injection, schedule: Q01DX009 (ip), vehicle: saline
[5] = dose: 50.0 mg/kg/injection, schedule: Q01DX005 (ip), vehicle: Klucel (hydroxypropylcellulose) (HPC)
[6] = dose: 100.0 mg/kg/injection, schedule: Q01DX005 (ip), vehicle: Klucel (hydroxypropylcellulose) (HPC)
[7] = dose: 200.0 mg/kg/injection, schedule: Q01DX005 (ip), vehicle: Klucel (hydroxypropylcellulose) (HPC)
[8] = dose: 50.0 mg/kg/injection, schedule: Q01DX005 (ip), vehicle: saline with Tween-80
[9] = dose: 100.0 mg/kg/injection, schedule: Q01DX005 (ip), vehicle: saline with Tween-80
[10] = dose: 200.0 mg/kg/injection, schedule: Q01DX005 (ip), vehicle: saline with Tween-80
[11] = dose: 100.0 mg/kg/injection, schedule: Q01DX009 (ip), vehicle: saline with Tween-80
[12] = dose: 200.0 mg/kg/injection, schedule: Q01DX009 (ip), vehicle: saline with Tween-80
[13] = dose: 6.25 mg/kg/injection, schedule: Q01DX009 (ip), vehicle: saline with Tween-80

`C/C=C\c1ccc(OC(=O)NC)c(OC)c1` was tested, and the T/C (dose: 60.0 mg/kg/injection, schedule: Q01DX005 (ip), vehicle: saline with Tween-80) was 100 % of control, the T/C (dose: 120.0 mg/kg/injection, schedule: Q01DX005 (ip), vehicle: saline with Tween-80) was 104 % of control and the T/C (dose: 240.0 mg/kg/injection, schedule: Q01DX005 (ip), vehicle: saline with Tween-80) was 100 % of control.

For `C=C1C(=O)OC2C(OC(C)=O)C(C(=O)OC)CC(O)C/C(CO)=C\C(OC(=O)/C(C)=C/C)C12` (stereo unspecified), the T/C (dose: 2.0 mg/kg/injection, schedule: Q01DX009 (ip), vehicle: Klucel (hydroxypropylcellulose) (HPC)) was 115 % of control, the T/C (dose: 4.0 mg/kg/injection, schedule: Q01DX009 (ip), vehicle: Klucel (hydroxypropylcellulose) (HPC)) was 108 % of control and the T/C (dose: 8.0 mg/kg/injection, schedule: Q01DX009 (ip), vehicle: Klucel (hydroxypropylcellulose) (HPC)) was 110 % of control. The T/C (dose: 16.0 mg/kg/injection, schedule: Q01DX009 (ip), vehicle: Klucel (hydroxypropylcellulose) (HPC)) was 100 % of control.

For `COC(=O)/C=C1\C=CC=CC12C(C(=O)OC)c1ccccc1C(C(=O)OC)C2C(=O)OC` (stereo unspecified), the T/C [1] was 100 % of control, the T/C [2] was 99 % of control and the T/C [3] was 100 % of control.

For `Cc1cc(N2C(=O)CCSC2=S)ccc1F`, the T/C (dose: 12.5 mg/kg/injection, schedule: Q01DX009 (ip), vehicle: saline) was 101 % of control, the T/C (dose: 25.0 mg/kg/injection, schedule: Q01DX009 (ip), vehicle: saline) was 108 % of control and the T/C [4] was 108 % of control. For the same compound, the T/C (dose: 50.0 mg/kg/injection, schedule: Q01DX009 (ip), vehicle: suspension in saline) was 91 % of control, the T/C (dose: 100.0 mg/kg/injection, schedule: Q01DX009 (ip), vehicle: suspension in saline) was 94 % of control and the T/C (dose: 200.0 mg/kg/injection, schedule: Q01DX009 (ip), vehicle: suspension in saline) was 88 % of control.

For `COc1ccc2c(c1)/C(=C/CCN(C)C)c1ccccc1S2`, the T/C (dose: 12.5 mg/kg/injection, schedule: Q04DX003 (ip), vehicle: saline) was 113 % of control and the T/C (dose: 25.0 mg/kg/injection, schedule: Q04DX003 (ip), vehicle: saline) was 109 % of control.

With `CCCCNC(=O)C(CONC(=O)OC)NC(C)=O` (stereo unspecified) the T/C [5] was 101 % of control, the T/C [6] was 97 % of control and the T/C [7] was 101 % of control.

`O=C(O)c1cc(-c2cccc3ccccc23)nc2ccccc12` was tested, and the T/C [8] was 94 % of control, the T/C [9] was 94 % of control and the T/C [10] was 94 % of control.

For `COc1nc(N)c2c3c([nH]c2c1C#N)C(C)(C)c1ccccc1N3C`, the T/C [3] was 96 % of control, the T/C [11] was 100 % of control and the T/C [12] was 94 % of control.

In the case of `COc1ccc(/C(C#N)=C/c2cc(OC)c(OC)c(OC)c2)cc1`, the T/C [5] is reported as 105 % of control, the T/C [6] is reported as 97 % of control and the T/C [7] is reported as 101 % of control.

With `O=C(O)c1cccc2c1SC(c1ccccc1)OC2=O` (stereo unspecified) the T/C (dose: 50.0 mg/kg/injection, schedule: Q01DX005 (ip), vehicle: distilled water + alcohol) was 103 % of control, the T/C (dose: 100.0 mg/kg/injection, schedule: Q01DX005 (ip), vehicle: distilled water + alcohol) was 99 % of control and the T/C (dose: 200.0 mg/kg/injection, schedule: Q01DX005 (ip), vehicle: distilled water + alcohol) was 109 % of control.

With `CCOC(=O)/C(=C(/C)OC(C)=O)c1ccc([N+](=O)[O-])cc1[N+](=O)[O-]` the T/C [4] was 89 % of control, the T/C (dose: 100.0 mg/kg/injection, schedule: Q01DX009 (ip), vehicle: saline) was 94 % of control and the T/C (dose: 200.0 mg/kg/injection, schedule: Q01DX009 (ip), vehicle: saline) was 93 % of control.

`OC1(c2cccc(Cl)c2)C2=NCCCN2c2ccccc21` (stereo unspecified) was tested, and the T/C [13] was 95 % of control and the T/C [1] was 91 % of control.

With `NC(=S)N/N=C/c1ccc(OC(=O)COc2ccccc2)cn1` the T/C [2] was 171 % of control, the T/C [3] was 205 % of control and the T/C [11] was 205 % of control.

`O=C(O)CCC(=O)NC1C(NNC(=O)c2cccnc2)OC(CO)C(O)C1O` (stereo unspecified) was tested, and the T/C [8] was 101 % of control, the T/C [9] was 95 % of control and the T/C [10] was 101 % of control.

For `Oc1cc2c(cc1C1COc3cc(OCc4ccccc4)ccc3C1)OCO2` (stereo unspecified), the T/C (dose: 50.0 mg/kg/injection, schedule: Q01DX001 (ip), vehicle: Klucel (hydroxypropylcellulose) (HPC)) was 95 % of control, the T/C (dose: 100.0 mg/kg/injection, schedule: Q01DX001 (ip), vehicle: Klucel (hydroxypropylcellulose) (HPC)) was 90 % of control and the T/C (dose: 200.0 mg/kg/injection, schedule: Q01DX001 (ip), vehicle: Klucel (hydroxypropylcellulose) (HPC)) was 93 % of control.

In the case of `N=C(N)Sc1cc(Br)c[n+]([O-])c1`, the T/C [5] is reported as 104 % of control, the T/C [6] is reported as 102 % of control and the T/C [7] is reported as 100 % of control.

In the case of `COCCc1nnnn1C`, the T/C [8] is reported as 102 % of control, the T/C [9] is reported as 98 % of control and the T/C [10] is reported as 114 % of control.

In the case of `C=C(C)C1CC2(C)C(C)C(OC(=O)/C(C)=C/C)CCC2C(OC(=O)C=C(C)C)C1=O` (stereo unspecified), the T/C (dose: 75.0 mg/kg/injection, schedule: Q04DX002 (ip), vehicle: Klucel (hydroxypropylcellulose) (HPC)) is reported as 99 % of control, the T/C (dose: 150.0 mg/kg/injection, schedule: Q04DX002 (ip), vehicle: Klucel (hydroxypropylcellulose) (HPC)) is reported as 98 % of control and the T/C (dose: 300.0 mg/kg/injection, schedule: Q04DX002 (ip), vehicle: Klucel (hydroxypropylcellulose) (HPC)) is reported as 106 % of control.

With `O=C1c2cccc3cccc(c23)C(=O)N1CCO` the T/C [8] was 104 % of control, the T/C [9] was 96 % of control and the T/C [10] was 100 % of control.

`COC(=O)C1(C)OS(=O)(=O)c2ccccc21` (stereo unspecified) was tested, and the T/C [3] was 101 % of control, the T/C [11] was 101 % of control and the T/C [12] was 104 % of control.

In the case of `CN1CCN(C(=O)/C=C/C(=O)c2ccccc2)CC1`, the T/C (dose: 30.0 mg/kg/injection, schedule: Q01DX005 (ip), vehicle: Klucel (hydroxypropylcellulose) (HPC)) is reported as 121 % of control, the T/C (dose: 30.0 mg/kg/injection, schedule: Q01DX005 (ip), vehicle: saline) is reported as 108 % of control and the T/C (dose: 60.0 mg/kg/injection, schedule: Q01DX005 (ip), vehicle: saline) is reported as 106 % of control and 109 % of control.

`CC1=NC2=NC(CCCC(=O)OCc3ccc(Cl)c(Cl)c3)=NC3=CC=CC(=N1)N32` was tested, and the T/C [2] was 101 % of control, the T/C [3] was 111 % of control and the T/C [11] was 95 % of control.

For `C=CCNC(=O)C(NC(=O)OCCCC)NC(=O)OCCCC`, the T/C [8] was 95 % of control, the T/C [9] was 87 % of control and the T/C [10] was 87 % of control.

`O=C(CN1C(=O)c2ccccc2C1=O)C(O)CN1C(=O)c2ccccc2C1=O` (stereo unspecified) was tested, and the T/C [8] was 94 % of control, the T/C [9] was 94 % of control and the T/C [10] was 100 % of control.

In the case of `c1ccc(-c2nc3ccccc3nc2-c2ccc(Sc3ccc(-c4nc5ccccc5nc4-c4ccccc4)cc3)cc2)cc1`, the T/C [13] is reported as 96 % of control, the T/C [1] is reported as 93 % of control and the T/C [2] is reported as 90 % of control.

In the case of `CCOC(=O)c1ccc(N=C/C(Cl)=C(/Cl)C(=O)O)cc1`, the T/C (dose: 3.12 mg/kg/injection, schedule: Q01DX009 (ip), vehicle: other) is reported as 102 % of control, the T/C (dose: 6.25 mg/kg/injection, schedule: Q01DX009 (ip), vehicle: other) is reported as 92 % of control and the T/C (dose: 12.5 mg/kg/injection, schedule: Q01DX009 (ip), vehicle: Klucel (hydroxypropylcellulose) (HPC)) is reported as 92 % of control. For the same compound, the T/C (dose: 12.5 mg/kg/injection, schedule: Q01DX009 (ip), vehicle: other) was 89 % of control.

For `CCCCCCOc1cccc(OCCCC[N+]2(CC)CCCCC2)c1`, the T/C (dose: 1.56 mg/kg/injection, schedule: Q01DX009 (ip), vehicle: saline) was 96 % of control, the T/C (dose: 3.12 mg/kg/injection, schedule: Q01DX009 (ip), vehicle: saline) was 105 % of control and the T/C (dose: 6.25 mg/kg/injection, schedule: Q01DX009 (ip), vehicle: saline) was 91 % of control.

In the case of `Cn1c(-c2ccccc2)c(COC(=O)NC2CCCCC2)c(COC(=O)NC2CCCCC2)c1-c1ccc(Cl)cc1`, the T/C (dose: 3.13 mg/kg/injection, schedule: Q01DX009 (ip), vehicle: distilled water + Tween-80) is reported as 109 % of control, the T/C (dose: 6.25 mg/kg/injection, schedule: Q01DX009 (ip), vehicle: distilled water + Tween-80) is reported as 105 % of control and the T/C (dose: 50.0 mg/kg/injection, schedule: Q01DX009 (ip), vehicle: distilled water + Tween-80) is reported as 178 % of control. For the same compound, the T/C (dose: 75.0 mg/kg/injection, schedule: Q01DX009 (ip), vehicle: distilled water + Tween-80) was 175 % of control.

`CCCCN(CCNc1ccc(C)c2sc3ccccc3c(=O)c12)CC(C)O` (stereo unspecified) was tested, and the T/C [8] was 101 % of control, the T/C [9] was 104 % of control and the T/C [10] was 101 % of control.
